According to BindingDB's records for doi:10.1016/j.bmc.2016.03.038 (2016):

How the values were obtained:
[1] = Inhibition of mouse GAT3 expressed in HEK293 cells assessed as [3H]GABA uptake preincubated for 25 mins followed by [3H]GABA/unlabeled GABA addition measured after 4 mins by liquid scintillation counting analysis
[2] = Inhibition of mouse GAT2 expressed in HEK293 cells assessed as [3H]GABA uptake preincubated for 25 mins followed by [3H]GABA/unlabeled GABA addition measured after 10 mins by liquid scintillation counting analysis

| SMILES | IC50 [1] [µM] | IC50 [2] [µM] |
| --- | --- | --- |
| O=C(O)[C@H]1CNCC[C@@H]1CCCC/C=C/c1ccccc1-c1ccccc1 | 44.5 |  |
| O=C(O)[C@H]1CNCC[C@H]1CCCC/C=C/c1ccccc1-c1ccccc1 |  | 52.2 |
| O=C(O)[C@H]1CNCC[C@H]1CCCC#Cc1ccccc1Cc1ccccc1 | 37.6 |  |
| O=C(O)[C@H]1CNCC[C@H]1CC/C=C/c1ccccc1Cc1ccccc1 | 62.5 |  |
